Reference: patent US20170103183A1, “Model Generation for Drug Determination” (NORWEGIAN UNIVERSITY OF SCIENCE AND TECHNOLOGY, priority 2015, published 2017)

Tested on: AGS cells xenograft tumors
Test: Subcutaneous AGS xenograft tumors in Balb/c mice
Type: in vivo
Conditions: single agent, low dose (PI103 5 mg/kg/d; (5Z)-7-oxozeaenol 3 mg/kg/d)
Description: To validate the beneficial response to one of the combination predicted and validated in cell line experiments the inventors generated subcutaneously injected xenograft tumors in Balb/c mice. 100 μl of 2×10^5 AGS cells were mixed with 100 μl of Matrigel and injected subcutaneously n the right flanks of 40 mice. Tumors were allowed to grow for 4 weeks, and mice with palpable tumors (n=30) were randomized to four groups: control, PI103 (5 mg/kg/d), (5Z)-7-oxozeaenol (3 mg/kg/d) and combination group which received both PI103 (5 mg/kg/d) and (5Z)-7oxozeaenol (3 mg/kg/d). Mice were injected with inhibitors or vehicle three times per week for a total of seven injections. Tumors were measured twice weekly using callipers and estimated volume from the formula V=0.5*d12*d2, where d1 is shortest diameter and d2 is longest diameter of tumor. Randomization was set up so that tumor volume was similar among groups at onset of treatment. […] Similar results were obtained for Mann-Whitney tests.

COc1cc(O)c2c(c1)/C=C/C[C@H](O)[C@H](O)C(=O)/C=C\C[C@H](C)OC2=O [(5Z)-7-oxozeaenol]
activity of individual agent on tumor size compared to control: non-significant

Oc1cccc(-c2nc(N3CCOCC3)c3oc4ncccc4c3n2)c1 [PI103]
activity of individual agent on tumor size compared to control: non-significant
